Columns and labels:
[1] = biological target: T1, lactase-phlorizin hydrolase (LPH) (Mus musculus, UniProt F8VPT3); test: competitive ABPP in mouse intestine homogenates, LPH; type: biochemical; details: mouse duodenum extracts; 0-100 μM; pH 6.0
T1 construct: cABPP in mouse intestine homogenates; from tissue; host or cells: duodenum of wild type mice

[2] = biological target: T2, bacterial α-glucosidase CjAgd31B (Cellvibrio japonicus, UniProt B3PEE6); test: thermal shift assay of CjAgd31B with Sypro Orange dye; type: binding; details: 2 μM CjAgd31B, 0-1000 μM inhibitor, pH 6.5
T2 construct: made in house
T2 sequence (B3PEE6 25-816): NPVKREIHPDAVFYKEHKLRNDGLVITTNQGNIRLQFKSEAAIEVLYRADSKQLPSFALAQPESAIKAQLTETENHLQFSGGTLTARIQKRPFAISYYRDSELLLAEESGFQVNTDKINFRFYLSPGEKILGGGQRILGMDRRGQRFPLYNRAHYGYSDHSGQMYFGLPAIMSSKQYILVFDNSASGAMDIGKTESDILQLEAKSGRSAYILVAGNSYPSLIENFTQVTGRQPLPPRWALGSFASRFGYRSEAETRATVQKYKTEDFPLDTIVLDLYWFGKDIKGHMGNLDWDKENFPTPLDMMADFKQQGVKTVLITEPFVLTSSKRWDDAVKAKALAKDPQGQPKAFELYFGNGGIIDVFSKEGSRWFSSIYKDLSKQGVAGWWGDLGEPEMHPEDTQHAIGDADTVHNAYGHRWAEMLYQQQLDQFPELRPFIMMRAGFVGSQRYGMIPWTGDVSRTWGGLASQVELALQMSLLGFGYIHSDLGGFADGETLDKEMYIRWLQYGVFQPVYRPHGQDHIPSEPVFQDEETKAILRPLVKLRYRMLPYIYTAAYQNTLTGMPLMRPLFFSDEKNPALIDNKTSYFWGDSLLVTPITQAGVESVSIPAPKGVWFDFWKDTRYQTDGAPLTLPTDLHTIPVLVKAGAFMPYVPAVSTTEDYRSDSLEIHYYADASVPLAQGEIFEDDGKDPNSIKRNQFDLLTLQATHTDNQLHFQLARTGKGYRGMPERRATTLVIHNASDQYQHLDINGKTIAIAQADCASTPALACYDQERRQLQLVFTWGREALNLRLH

[3] = biological target: T3, sucrase-isomaltase (SI) (Mus musculus, UniProt B5THE3); test: competitive ABPP in mouse intestine homogenates, SI; type: biochemical; details: mouse duodenum extracts; 0-100 μM; 30 min 37 °C
T3 construct: cABPP in mouse intestine homogenates; from tissue; host or cells: duodenum of wild type mice
Method: Inhibition of gastrointestinal α-glucosidases with antidiabetic drugs has been related to undesired effects, including flatulence, diarrhea, and abdominal pain. Cyclosulfamidate 4 inhibits SI and MGAM but does so about a 100-fold less potently than it inhibits rhGAA or GANAB, and we conclude that it has a more beneficial therapeutic window in this regard compared to NB-DNJ 2.
Figure 2 Competitive ABPP (cABPP) in mouse intestine homogenates. […]
After preincubation, 25 μL of E+I mixture was added to a 96 wells plate and 100 μL substrate solution in the appropriate buffer was subsequently added. GAA activity was measured using final concentrations of 47 nM enzyme (Myozyme) and 3.0 mM 4-MU-α-D-glucopyranoside, for 30 minutes at 37 ℃. GANAB activity was measured using wt fibroblasts and 2.4 mM 4-MU-α-D-glucopyranoside, for 2 h at 37 ℃. GBA1 activity was measured using final concentrations of 0.7 nM enzyme (Cerezyme) and 3.0 mM 4-methylumbeliferone(4-MU)-β-D-glucopyranoside, for 30 min at 37 ℃. GBA2 residual activity was measured using cellular homogenates of HEK293T over-expressing GBA2 pre-incubated for 30 min with a GBA1 inhibitor (1 µM 37 (ME656), see Figure S1 for chemical structure), and further incubation with 3.0 mM 4-methylumbeliferone(4MU)-β-D-glucopyranoside […]

T1 sequence (F8VPT3 22-1931): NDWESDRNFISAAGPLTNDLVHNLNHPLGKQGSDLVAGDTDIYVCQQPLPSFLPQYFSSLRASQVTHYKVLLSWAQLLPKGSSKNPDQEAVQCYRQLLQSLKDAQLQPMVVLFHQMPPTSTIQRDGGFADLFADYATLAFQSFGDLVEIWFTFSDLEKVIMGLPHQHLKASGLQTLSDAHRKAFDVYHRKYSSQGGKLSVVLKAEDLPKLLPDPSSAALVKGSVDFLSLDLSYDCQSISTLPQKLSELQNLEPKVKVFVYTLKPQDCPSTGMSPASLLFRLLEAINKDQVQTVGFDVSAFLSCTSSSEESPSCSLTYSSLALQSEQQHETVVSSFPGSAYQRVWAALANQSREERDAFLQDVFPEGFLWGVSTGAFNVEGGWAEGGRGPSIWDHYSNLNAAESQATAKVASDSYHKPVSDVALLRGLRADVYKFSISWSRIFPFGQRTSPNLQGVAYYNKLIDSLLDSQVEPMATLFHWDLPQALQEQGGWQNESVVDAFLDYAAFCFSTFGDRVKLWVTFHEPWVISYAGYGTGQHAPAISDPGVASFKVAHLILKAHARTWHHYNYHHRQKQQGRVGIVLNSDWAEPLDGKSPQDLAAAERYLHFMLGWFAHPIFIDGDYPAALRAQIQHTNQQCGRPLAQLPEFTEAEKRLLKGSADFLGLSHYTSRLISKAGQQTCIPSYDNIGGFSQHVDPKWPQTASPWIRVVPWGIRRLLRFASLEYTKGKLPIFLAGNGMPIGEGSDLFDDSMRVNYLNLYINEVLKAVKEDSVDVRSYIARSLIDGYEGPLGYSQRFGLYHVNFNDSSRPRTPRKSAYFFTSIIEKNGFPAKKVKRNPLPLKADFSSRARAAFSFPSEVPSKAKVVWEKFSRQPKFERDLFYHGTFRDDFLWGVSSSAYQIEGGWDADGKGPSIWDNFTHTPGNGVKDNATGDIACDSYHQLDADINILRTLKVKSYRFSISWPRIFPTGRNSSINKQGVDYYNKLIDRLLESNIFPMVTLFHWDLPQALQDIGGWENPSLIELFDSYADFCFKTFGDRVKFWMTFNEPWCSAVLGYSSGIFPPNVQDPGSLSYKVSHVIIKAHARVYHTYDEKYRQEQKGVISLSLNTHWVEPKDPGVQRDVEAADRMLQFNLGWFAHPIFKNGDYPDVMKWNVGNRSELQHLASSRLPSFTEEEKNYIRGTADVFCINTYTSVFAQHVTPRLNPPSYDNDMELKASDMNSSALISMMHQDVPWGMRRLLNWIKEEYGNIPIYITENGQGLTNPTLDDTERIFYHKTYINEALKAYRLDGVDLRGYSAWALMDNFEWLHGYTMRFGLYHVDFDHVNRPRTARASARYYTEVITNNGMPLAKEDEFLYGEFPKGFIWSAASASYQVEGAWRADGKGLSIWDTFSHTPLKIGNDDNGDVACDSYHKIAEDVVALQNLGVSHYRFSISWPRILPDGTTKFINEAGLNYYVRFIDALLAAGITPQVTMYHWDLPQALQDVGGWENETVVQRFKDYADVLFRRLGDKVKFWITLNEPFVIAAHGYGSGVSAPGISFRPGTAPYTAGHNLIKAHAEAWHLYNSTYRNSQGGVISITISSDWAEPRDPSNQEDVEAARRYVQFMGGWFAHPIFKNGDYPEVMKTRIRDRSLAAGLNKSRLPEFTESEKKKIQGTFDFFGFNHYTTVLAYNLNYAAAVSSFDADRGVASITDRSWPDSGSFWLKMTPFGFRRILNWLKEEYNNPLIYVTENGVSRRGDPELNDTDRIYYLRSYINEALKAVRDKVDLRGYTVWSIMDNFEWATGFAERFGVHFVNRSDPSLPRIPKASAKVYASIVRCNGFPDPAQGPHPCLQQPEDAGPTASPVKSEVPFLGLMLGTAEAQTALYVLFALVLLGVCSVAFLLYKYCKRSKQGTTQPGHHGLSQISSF
T3 sequence (B5THE3 1-1818): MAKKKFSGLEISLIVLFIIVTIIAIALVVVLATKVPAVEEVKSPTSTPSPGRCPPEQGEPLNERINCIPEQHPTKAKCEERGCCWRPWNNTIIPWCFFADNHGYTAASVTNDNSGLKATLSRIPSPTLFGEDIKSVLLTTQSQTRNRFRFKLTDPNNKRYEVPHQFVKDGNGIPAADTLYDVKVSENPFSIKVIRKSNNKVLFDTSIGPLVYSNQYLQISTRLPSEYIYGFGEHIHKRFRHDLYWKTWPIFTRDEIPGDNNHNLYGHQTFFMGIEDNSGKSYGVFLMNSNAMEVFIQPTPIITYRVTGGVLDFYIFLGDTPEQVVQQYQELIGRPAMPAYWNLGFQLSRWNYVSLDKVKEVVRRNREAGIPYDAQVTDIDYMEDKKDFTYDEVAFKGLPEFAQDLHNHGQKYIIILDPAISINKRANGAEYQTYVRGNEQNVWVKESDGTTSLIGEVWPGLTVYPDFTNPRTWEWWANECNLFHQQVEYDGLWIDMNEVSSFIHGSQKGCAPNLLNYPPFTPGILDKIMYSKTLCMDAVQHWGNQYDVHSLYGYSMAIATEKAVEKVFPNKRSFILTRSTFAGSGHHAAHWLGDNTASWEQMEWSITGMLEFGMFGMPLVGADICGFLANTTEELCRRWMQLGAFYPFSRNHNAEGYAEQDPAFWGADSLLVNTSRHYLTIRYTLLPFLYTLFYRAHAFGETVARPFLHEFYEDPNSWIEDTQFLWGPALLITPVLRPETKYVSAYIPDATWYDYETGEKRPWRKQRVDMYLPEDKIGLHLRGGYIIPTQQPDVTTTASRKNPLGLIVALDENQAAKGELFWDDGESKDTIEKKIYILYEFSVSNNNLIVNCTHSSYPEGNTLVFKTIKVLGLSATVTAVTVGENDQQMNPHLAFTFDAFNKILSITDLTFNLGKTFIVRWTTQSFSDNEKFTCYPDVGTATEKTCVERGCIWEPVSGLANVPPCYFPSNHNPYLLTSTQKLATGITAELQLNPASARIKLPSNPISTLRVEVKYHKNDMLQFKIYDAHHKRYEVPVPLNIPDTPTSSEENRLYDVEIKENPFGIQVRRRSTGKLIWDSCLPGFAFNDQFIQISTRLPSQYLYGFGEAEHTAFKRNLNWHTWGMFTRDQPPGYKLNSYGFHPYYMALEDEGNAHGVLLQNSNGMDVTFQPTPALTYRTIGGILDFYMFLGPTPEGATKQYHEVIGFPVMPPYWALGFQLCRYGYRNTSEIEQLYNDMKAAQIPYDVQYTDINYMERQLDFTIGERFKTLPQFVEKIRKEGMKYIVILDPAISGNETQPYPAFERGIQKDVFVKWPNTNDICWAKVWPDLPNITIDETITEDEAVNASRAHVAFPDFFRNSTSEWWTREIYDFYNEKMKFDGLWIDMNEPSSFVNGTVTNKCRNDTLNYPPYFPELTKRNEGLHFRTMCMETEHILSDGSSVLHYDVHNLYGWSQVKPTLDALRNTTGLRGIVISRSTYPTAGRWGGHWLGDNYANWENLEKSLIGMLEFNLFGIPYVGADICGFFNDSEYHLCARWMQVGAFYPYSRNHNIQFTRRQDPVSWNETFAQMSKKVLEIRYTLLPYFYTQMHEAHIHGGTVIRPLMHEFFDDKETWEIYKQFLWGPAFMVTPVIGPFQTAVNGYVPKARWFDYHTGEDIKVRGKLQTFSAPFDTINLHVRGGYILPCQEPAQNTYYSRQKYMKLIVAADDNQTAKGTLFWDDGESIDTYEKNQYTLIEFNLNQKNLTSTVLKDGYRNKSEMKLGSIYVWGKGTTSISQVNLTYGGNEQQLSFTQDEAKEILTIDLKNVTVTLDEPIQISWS

Structure (SMILES): O=S1(=O)N[C@@H]2[C@H](O)[C@@H](O)[C@H](O)[C@@H](CO)[C@@H]2O1 [compound 4, 1,6-epi-cyclophellitol cyclosulfamidate]
- inhibition of LPH activities by cABPP, in words [1]: inhibit neither β-glucosidase nor β-galactosidase activities
- ΔTmmax [2]: 5.2 °C
- EC50 ([2]; read-out: EC50 of thermal stabilization): 134 µM
- inhibition of SI by cABPP, in words [3]: inhibit
